According to patent US7262185B2, “Benzazepine derivative, process for producing the same, and use” (Takeda Chemical Industries Ltd., priority 2001, dated 2007):

SMILES | melting point
CCCCOCCOc1ccc(-c2ccc3c(c2)C=C(C(=O)Nc2ccc(C(O)c4cc(C)cc[n+]4[O-])cc2)CCN3)cc1 (centres unmarked) [Compound 1, 7-[4-(2-butoxyethoxy)phenyl]-N-[4-[hydroxy(4-methyl-1-oxidopyridin-2-yl)methyl]phenyl]-2,3-dihydro-1H-1-benzazepine-4-carboxamide] | 198 to 201 °C (dec.)
CCCCOCCOc1ccc(-c2ccc3c(c2)C=C(C(=O)Nc2ccc(C(O)c4cccc[n+]4[O-])c(OC)c2)CCN3)cc1 (centres unmarked) [Compound 3, 7-[4-(2-butoxyethoxy)phenyl]-N-[4-[hydroxy(1-oxidopyridin-2-yl)methyl]-3-methoxyphenyl]-2,3-dihydro-1H-1-benzazepine-4-carboxamide] | 116 to 118 °C
CCCCOCCOc1ccc(-c2ccc3c(c2)C=C(C(=O)Nc2ccc(C(O)c4cccc[n+]4[O-])c(Cl)c2)CCN3CC(C)C)cc1 (centres unmarked) [Compound 6, 7-[4-(2-butoxyethoxy)phenyl]-N-[3-chloro-4-[hydroxy(1-oxidopyridin-2-yl)methyl]phenyl]-1-isobutyl-2,3-dihydro-1H-1-benzazepine-4-carboxamide] | 105 to 107 °C
CCCCOCCOc1ccc(-c2ccc3c(c2)C=C(C(=O)Nc2ccc(C(O)c4cccc[n+]4[O-])c(C)c2)CCN3)cc1 (centres unmarked) [Compound 7, 7-[4-(2-butoxyethoxy)phenyl]-N-[4-[hydroxy(1-oxidopyridin-2-yl)methyl]-3-methylphenyl]-2,3-dihydro-1H-1-benzazepine-4-carboxamide] | 179 to 182 °C (dec.)
CCCCOCCOc1ccc(-c2ccc3c(c2)C=C(C(=O)Nc2ccc(C(O)c4cc(C)cc[n+]4[O-])c(OC)c2)CCN3CC(C)C)cc1 (centres unmarked) [Compound 10, 7-[4-(2-butoxyethoxy)phenyl]-N-[4-[hydroxy(4-methyl-1-oxidopyridin-2-yl)methyl]-3-methoxyphenyl]-1-isobutyl-2,3-dihydro-1H-1-benzazepine-4-carboxamide] | 174 to 176 °C
CCCCOCCOc1ccc(-c2ccc3c(c2)C=C(C(=O)Nc2ccc(C(O)c4cc(C)cc[n+]4[O-])c(OCC)c2)CCN3)cc1 (centres unmarked) [Compound 11, 7-[4-(2-butoxyethoxy)phenyl]-N-[3-ethoxy-4-[hydroxy(4-methyl-1-oxidopyridin-2-yl)methyl]phenyl]-2,3-dihydro-1H-1-benzazepine-4-carboxamide] | 110 to 115 °C
CCCCOCCOc1ccc(-c2ccc3c(c2)C=C(C(=O)Nc2ccc(C(O)c4cc(C)cc[n+]4[O-])c(OCC)c2)CCN3CC(C)C)cc1 (centres unmarked) [Compound 12, 7-[4-(2-butoxyethoxy)phenyl]-N-[3-ethoxy-4-[hydroxy(4-methyl-1-oxidopyridin-2-yl)methyl]phenyl]-1-isobutyl-2,3-dihydro-1H-1-benzazepine-4-carboxamide] | 108 to 110 °C
CCCCOCCOc1ccc(-c2ccc3c(c2)C=C(C(=O)Nc2ccc(C(O)c4cc(C)cc[n+]4[O-])c(C(F)(F)F)c2)CCN3)cc1 (centres unmarked) [Compound 16, 7-[4-(2-butoxyethoxy)phenyl]-N-[4-[hydroxy(4-methyl-1-oxidopyridin-2-yl)methyl]-3-trifluoromethylphenyl]-2,3-dihydro-1H-1-benzazepine-4-carboxamide] | 124 to 128 °C
CCCCOCCOc1ccc(-c2ccc3c(c2)C=C(C(=O)Nc2ccc(C(O)c4cc(C)cc[n+]4[O-])c(C(F)(F)F)c2)CCN3CCC)cc1 (centres unmarked) [Compound 17, 7-[4-(2-butoxyethoxy)phenyl]-N-[4-[hydroxy(4-methyl-1-oxidopyridin-2-yl)methyl]-3-trifluoromethylphenyl]-1-propyl-2,3-dihydro-1H-1-benzazepine-4-carboxamide] | 103 to 105 °C
CCCCOCCOc1ccc(-c2ccc3c(c2)C=C(C(=O)Nc2ccc(C(O)c4cccc[n+]4[O-])c(OCC(F)(F)F)c2)CCN3CC(C)C)cc1 (centres unmarked) [Compound 23, 7-[4-(2-butoxyethoxy)phenyl]-1-isobutyl-N-[4-[hydroxy(1-oxidopyridin-2-yl)methyl]-3-(2,2,2-trifluoroethoxy)phenyl]-2,3-dihydro-1H-1-benzazepine-4-carboxamide] | 118 to 123 °C
CCCCOCCOc1ccc(-c2ccc3c(c2)C=C(C(=O)Nc2ccc(OCc4nccn4CCC)cc2)CCN3CC(C)C)cc1 [Compound 25, 7-[4-(2-butoxyethoxy)phenyl]-1-isobutyl-N-[4-[(1-propylimidazole-2-yl)methoxy]phenyl]-2,3-dihydro-1H-1-benzazepine-4-carboxamide] | 118 to 120 °C
CCCCOCCOc1ccc(-c2ccc3c(c2)C=C(C(=O)Nc2ccc(SCc4nncn4CC(C)C)cc2)CCN3CCC)cc1 [Compound 32, 7-[4-(2-butoxyethoxy)phenyl]-N-[4-[(4-isobutyl-4H-1,2,4-triazol-3-yl)methylthio]phenyl]-1-propyl-2,3-dihydro-1H-1-benzazepine-4-carboxamide] | 130 to 132 °C
CCCCOCCOc1ccc(-c2ccc3c(c2)C=C(C(=O)Nc2ccc([S+]([O-])Cc4nncn4CC(C)C)cc2)CCN3CCC)cc1 (centres unmarked) [Compound 33, 7-[4-(2-butoxyethoxy)phenyl]-N-[4-((4-isobutyl-4H-1,2,4-triazol-3-yl)methylsulfinyl]phenyl]-1-propyl-2,3-dihydro-1H-1-benzazepine-4-carboxamide] | 186 to 190 °C (dec.)
CCCCOCCOc1ccc(-c2ccc3c(c2)C=C(C(=O)Nc2ccc([S+]([O-])Cc4nnc(C)c(C)n4)cc2)CCN3CC(C)C)cc1 (centres unmarked) [Compound 37, 7-[4-(2-butoxyethoxy)phenyl]-N-[4-[(5,6-dimethyl-1,2,4-triazin-3-yl)methylsulfinyl]phenyl]-1-isobutyl-2,3-dihydro-1H-1-benzazepine-4-carboxamide] | 178 to 183 °C (dec.)
CCCCOCCOc1ccc(-c2ccc3c(c2)C=C(C(=O)Nc2ccc(SCc4nncn4CCC)c(C(F)(F)F)c2)CCN3CC(C)C)cc1 [Compound 42, 7-[4-(2-butoxyethoxy)phenyl]-1-isobutyl-N-[3-trifluoromethyl-4-[(4-propyl-4H-1,2,4-triazol-3-yl)methylthio]phenyl]-2,3-dihydro-1H-1-benzazepine-4-carboxamide] | 131 to 133 °C
CCCCOCCOc1ccc(-c2ccc3c(c2)C=C(C(=O)Nc2ccc([S+]([O-])CCc4nncn4CCC)cc2)CCN3CCC)cc1 (centres unmarked) [Compound 52, 7-[4-(2-butoxyethoxy)phenyl]-1-propyl-N-[4-[2-(4-propyl-4H-1,2,4-triazol-3-yl)ethylsulfinyl]phenyl]-2,3-dihydro-1H-1-benzazepine-4-carboxamide] | 93 to 101 °C
CCCCOCCOc1ccc(-c2ccc3c(c2)C=C(C(=O)Nc2ccc([S+]([O-])Cc4nncn4CCC)nc2)CCN3CC(C)C)cc1 (centres unmarked) [Compound 54, 7-[4-(2-butoxyethoxy)phenyl]-1-isobutyl-N-[2-(4-propyl-4H-1,2,4-triazol-3-yl)methylsulfinylpyridin-5-yl]-2,3-dihydro-1H-1-benzazepine-4-carboxamide] | 135 to 138 °C
CCCCOCCOc1ccc(-c2ccc3c(c2)C=C(C(=O)Nc2ccc(CCCn4cnnc4)cc2)CCN3CCC)cc1 [Compound 64, 7-[4-(2-butoxyethoxy)phenyl]-1-propyl-N-[4-[3-(4H-1,2,4-triazol-4-yl)propyl]phenyl]-2,3-dihydro-1H-1-benzazepine-4-carboxamide] | 191 to 194 °C
CCCCOCCOc1ccc(-c2ccc3c(c2)C=C(C(=O)Nc2ccc(SCc4n[nH]c(=O)n4CCC)cc2)CCN3CC(C)C)cc1 [Compound 65, 7-[4-(2-butoxyethoxy)phenyl]-1-isobutyl-N-[4-[(4-propyl-1H-1,2,4-triazol-5-on-3-yl)methylthio]phenyl]-2,3-dihydro-1H-1-benzazepine-4-carboxamide] | 98 to 101 °C
CCCCOCCOc1ccc(-c2ccc3c(c2)C=C(C(=O)Nc2ccc([C@H](O)c4ccccn4)cc2)CCN3C=O)cc1 [Compound 75, 7-[4-(2-butoxyethoxy)phenyl]-1-formyl-N-[4-[(S)-hydroxy(2-pyridyl)methyl]phenyl]-2,3-dihydro-1H-1-benzazepine-4-carboxamide] | 130 to 134 °C
CCCCOCCOc1ccc(-c2ccc3c(c2)C=C(C(=O)Nc2ccc([C@@H](O)c4ccccn4)cc2)CCN3C=O)cc1 [Compound 76, 7-[4-(2-butoxyethoxy)phenyl]-1-formyl-N-[4-[(R)-hydroxy(2-pyridyl)methyl]phenyl]-2,3-dihydro-1H-1-benzazepine-4-carboxamide] | 110 to 112 °C
CCCCOCCOc1ccc(-c2ccc3c(c2)C=C(C(=O)Nc2ccc([C@H](O)c4cccc[n+]4[O-])cc2)CCN3C=O)cc1 [Compound 77, 7-[4-(2-butoxyethoxy)phenyl]-1-formyl-N-[4-[(S)-hydroxy(1-oxidopyridin-2-yl)methyl]phenyl]-2,3-dihydro-1H-1-benzazepine-4-carboxamide] | 120 to 125 °C
CCCCOCCOc1ccc(-c2ccc3c(c2)C=C(C(=O)Nc2ccc([C@@H](O)c4cccc[n+]4[O-])cc2)CCN3C=O)cc1 [Compound 78, 7-[4-(2-butoxyethoxy)phenyl]-1-formyl-N-[4-[(R)-hydroxy(1-oxidopyridin-2-yl)methyl]phenyl]-2,3-dihydro-1H-1-benzazepine-4-carboxamide] | 104 to 106 °C
CCCCOCCOc1ccc(-c2ccc3c(c2)C=C(C(=O)Nc2ccc([C@H](O)c4ccccn4)cc2)CCN3C(=O)C(F)(F)F)cc1 [Compound 79, 7-[4-(2-butoxyethoxy)phenyl]-N-[4-[(S)-hydroxy(2-pyridyl)methyl]phenyl]-1-trifluoroacetyl-2,3-dihydro-1H-1-benzazepine-4-carboxamide] | 100 to 102 °C
CCCCOCCOc1ccc(-c2ccc3c(c2)C=C(C(=O)Nc2ccc([C@H](O)c4cccc[n+]4[O-])cc2)CCN3C(=O)C(F)(F)F)cc1 [Compound 80, 7-[4-(2-butoxyethoxy)phenyl]-N-[4-[(S)-hydroxy(1-oxidopyridin-2-yl)methyl]phenyl]-2,3-dihydro-1-trifluoroacetyl-1H-1-benzazepine-4-carboxamide] | 107 to 110 °C
CCCCOCCOc1ccc(-c2ccc3c(c2)C=C(C(=O)Nc2ccc([C@H](O)c4cccc[n+]4[O-])cc2)CCN3CCC)cc1 [Compound 83, 7-[4-(2-butoxyethoxy)phenyl]-N-[4-[(S)-hydroxy(1-oxidopyridin-2-yl)methyl]phenyl]-1-propyl-2,3-dihydro-1H-1-benzazepine-4-carboxamide] | 87 to 89 °C
